From ChEMBL document CHEMBL3871291, “Anthraquinones from Morinda longissima and their insulin mimetic activities via AMP-activated protein kinase (AMPK) activation” (Bioorg Med Chem Lett, 2017)
Activity calls are given as the source filed them. The calls are words filed in the database; no cut-off is given here.

Assays:
Mus musculus [1] = species on record: Mus musculus; experiment: Activation of AMPK in mouse 3T3L1 adipocytes assessed as increase in 2-NBDG uptake at 10 uM after 90 mins by fluorescence assay; assay type: cell-based
Mus musculus [2] = species on record: Mus musculus; experiment: Activation of AMPK in mouse 3T3L1 adipocytes assessed as increase in 2-NBDG uptake at 10 uM after 90 mins by fluorescence microscopy; assay type: cell-based
C2C12 [3] = experiment: Activation of AMPK in mouse C2C12 cells assessed as increase in ACC phosphorylation at Ser79 residues at 10 uM after 2 hrs by Western blot analysis; assay type: cell-based
[4] = Effect on total AMPK expression in mouse C2C12 cells at 10 uM after 2 hrs by Western blot analysis; assay type: ADME, cell-based; conditions: c2c12, 2 h
Mus musculus [5] = species on record: Mus musculus; experiment: Cytotoxicity against mouse 3T3L1 adipocytes assessed as decrease in cell viability at 10 uM after 2 to 24 hrs by MTT assay; assay type: toxicity; conditions: 3t3-l1, 10 µM
Mus musculus [6] = species on record: Mus musculus; experiment: Cytotoxicity against mouse C2C12 cells assessed as decrease in cell viability at 10 uM after 2 to 24 hrs by MTT assay; assay type: toxicity, cell-based; conditions: c2c12, 10 µM
C2C12 [7] = experiment: Induction of AMPK alpha phosphorylation at Thr172 residue in mouse C2C12 cells at 10 uM after 2 hrs by Western blot analysis; assay type: cell-based
C2C12 [8] = experiment: Activation of AMPK in mouse C2C12 cells assessed as increase in ACC phosphorylation at Ser79 residues at 1 mM after 1 hr by Western blot analysis; assay type: cell-based

SMILES: COCc1c(O)cc2c(c1OC)C(=O)c1ccccc1C2=O
- Activity (Mus musculus [1]): Active

SMILES: COc1c(O)c(O)cc2c1C(=O)c1ccccc1C2=O
- Activity (Mus musculus [1]): Active

SMILES: COc1cc2c(c(O)c1COCCC(C)C)C(=O)c1ccccc1C2=O
- Activity (Mus musculus [2]): Active
- Activity (Mus musculus [1]): Active
- Activity (C2C12 [3]): Active
- Activity [4]: Non-Toxic
- Activity (Mus musculus [5]): Non-Toxic
- Activity (Mus musculus [6]): Non-Toxic
- Activity (C2C12 [7]): Active

SMILES: NC(=O)c1ncn([C@@H]2O[C@H](CO)[C@@H](O)[C@H]2O)c1N
- Activity (C2C12 [8]): Active

SMILES: COc1c2c(cc3c1C(=O)c1ccccc1C3=O)OC(C)(C)OC2
- Activity (Mus musculus [2]): Active
- Activity (Mus musculus [1]): Active
- Activity (C2C12 [3]): Active
- Activity [4]: Non-Toxic
- Activity (Mus musculus [5]): Non-Toxic
- Activity (Mus musculus [6]): Non-Toxic
- Activity (C2C12 [7]): Active

SMILES: COc1cc2c(cc1C)C(=O)c1ccccc1C2=O
- Activity (Mus musculus [1]): Active

SMILES: Cc1ccc2c(c1)C(=O)c1ccccc1C2=O [TECTOQUINONE]
- Activity (Mus musculus [2]): Active
- Activity (Mus musculus [1]): Active
- Activity [4]: Non-Toxic
- Activity (C2C12 [7]): Active

SMILES: CCCCOCc1c(O)cc2c(c1O)C(=O)c1ccccc1C2=O
- Activity (Mus musculus [1]): Active

SMILES: Cc1cc2c(cc1O)C(=O)c1ccccc1C2=O
- Activity (Mus musculus [1]): Active

SMILES: COc1c(C)c(O)cc2c1C(=O)c1ccccc1C2=O
- Activity (Mus musculus [1]): Active

SMILES: COCc1c(OC)cc2c(c1OC)C(=O)c1ccccc1C2=O
- Activity (Mus musculus [1]): Active
